Reference: patent US20090227619A1, “Harmine derivatives, intermediates used in their preparations, preparation processes and use therefo” (priority 2003, published 2009)
Where two headings read alike, the source gives them in different places.

Experiments:
Lewis lung cancer = settings: Lewis lung cancer; for Body weight of the animals, end, First time / Body weight of the animals, end, Second time: ip × 10qd;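 on all read-outs here: mice implanted subcutaneously in the axilla with Lewis lung tumor cells, treated starting the following day, killed roughly three weeks after implantation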
Hela = test: In vitro cytotoxicity, IC50 by MTT method, Hela; type: cell-based; settings: Homo sapiens; Hela, MTT; read-out: IC50
Method in brief: (§1)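 MTT viability, 48 h exposure: cells 10^5/ml in RPMI1640 + 10% FBS, 37 °C/5% CO2; MTT 4 h, DMSO solubilisation, A490.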

PLA-801 = test: In vitro cytotoxicity, IC50 by MTT method, PLA-801; type: cell-based; settings: PLA-801, MTT; read-out: IC50
Method in brief: as §1

HepG2 = test: In vitro cytotoxicity, IC50 by MTT method, HepG2; type: cell-based, human; settings: Homo sapiens; HepG2, MTT; read-out: IC50
Method in brief: as §1

S180 sarcoma = settings: S180 sarcoma; for Body weight of the animals, beginning, First time / Body weight of the animals, end, First time / Inhibition rate, First time / Weight of the tumor X ± SD, First time / Body weight of the animals, beginning, Second time / Body weight of the animals, end, Second time / Inhibition rate, Second time: ip × 10qd
Kunming mice = settings: summary Table 34, compounds marked *, results [153] of the previous tests; in mg/kg; cited from earlier work
Bel-7402 = test: In vitro cytotoxicity, IC50 by MTT method, Bel-7402; type: cell-based; settings: Homo sapiens, Bel-7402; BeI7402, MTT; read-out: IC50
Method in brief: as §1

NIH3T3 = test: In vitro cytotoxicity, IC50 by MTT method, NIH3T3; type: cell-based; settings: Mus musculus; NIH3T3, MTT; read-out: IC50
Method in brief: as §1

Lovo = test: In vitro cytotoxicity, IC50 by MTT method, Lovo; type: cell-based; settings: Homo sapiens; Lovo, MTT; read-out: IC50
Method in brief: as §1

BGC-823 = test: In vitro cytotoxicity, IC50 by MTT method, BGC-823; type: cell-based; settings: Homo sapiens, BGC-823; BGC823, MTT; read-out: IC50
Method in brief: as §1

With `O=C(O)c1cc2c(cn1)[nH]c1ccccc12` [Compound 17, β-carboline-3-carboxylic acid] the “Body weight of the animals, end, First time” value (“Body weight … end, First time” for short) (Lewis lung cancer; Dosage 50 (mg/ml)) was 25.4 g, the “Body weight of the animals, end, Second time” value (shortened to “Body weight … end, Second time”) (Lewis lung cancer; Dosage 50 (mg/ml)) was 25.4 g and the “Body weight of the animals, beginning, First time” value (Lewis lung cancer; Dosage 50, ip × 10qd) was 19.2 g. The “Inhibition rate, First time” value (Lewis lung cancer; Dosage 50, ip × 10qd) was 31.40%, the “Weight of the tumor X ± SD, First time” value (Lewis lung cancer; Dosage 50, ip × 10qd) was 2.01 ± 0.28 g and the “Body weight of the animals, beginning, Second time” value (Lewis lung cancer; Dosage 50, ip × 10qd) was 20.2 g. The “Inhibition rate, Second time” value (Lewis lung cancer; Dosage 50, ip × 10qd) was 27.98%, the “Weight of the tumor X ± SD, Second time” value (Lewis lung cancer; Dosage 50, ip × 10qd) was 1.75 ± 0.09 g and the “Body weight … end, First time” value (Lewis lung cancer; Dosage 100 (mg/ml)) was 24.8 g. The “Body weight … end, Second time” value (Lewis lung cancer; Dosage 100 (mg/ml)) was 24.9 g, the “Body weight of the animals, beginning, First time” value (Lewis lung cancer; Dosage 100, ip × 10qd) was 19.0 g and the “Inhibition rate, First time” value (Lewis lung cancer; Dosage 100, ip × 10qd) was 37.20%. For the same compound, the “Weight of the tumor X ± SD, First time” value (Lewis lung cancer; Dosage 100, ip × 10qd) was 1.84 ± 0.48 g, the “Body weight of the animals, beginning, Second time” value (Lewis lung cancer; Dosage 100, ip × 10qd) was 20.4 g and the “Inhibition rate, Second time” value (Lewis lung cancer; Dosage 100, ip × 10qd) was 37.86%. For the same compound, the “Weight of the tumor X ± SD, Second time” value (Lewis lung cancer; Dosage 100, ip × 10qd) was 1.51 ± 0.09 g, the “Inhibition rate (%) Lewis cancer” value (Lewis lung cancer; comparison table 43, in vivo) was 33.4% and the IC50 (Hela) was 220 µM. For the same compound, the IC50 (PLA-801) was 300 µM, the IC50 (HepG2) was 280 µM and the “Body weight of the animals, beginning, First time” value (S180 sarcoma; Dosage 50 (mg/ml)) was 19.2 g. For the same compound, the “Body weight … end, First time” value (S180 sarcoma; Dosage 50 (mg/ml)) was 24.7 g, the “Inhibition rate, First time” value (S180 sarcoma; Dosage 50 (mg/ml)) was 23.97% and the “Weight of the tumor X ± SD, First time” value (S180 sarcoma; Dosage 50 (mg/ml)) was 2.03 ± 0.24 g. The “Body weight of the animals, beginning, Second time” value (S180 sarcoma; Dosage 50 (mg/ml)) was 18.5 g, the “Body weight … end, Second time” value (S180 sarcoma; Dosage 50 (mg/ml)) was 25.9 g and the “Inhibition rate, Second time” value (S180 sarcoma; Dosage 50 (mg/ml)) was 25.19%. For the same compound, the “Weight of the tumor X ± SD, Second time” value (S180 sarcoma; Dosage 50, ip × 10qd) was 2.02 ± 0.21 g, the “Body weight of the animals, beginning, First time” value (S180 sarcoma; Dosage 100 (mg/ml)) was 19.3 g and the “Body weight … end, First time” value (S180 sarcoma; Dosage 100 (mg/ml)) was 24.2 g. The “Inhibition rate, First time” value (S180 sarcoma; Dosage 100 (mg/ml)) was 35.21%, the “Weight of the tumor X ± SD, First time” value (S180 sarcoma; Dosage 100 (mg/ml)) was 1.73 ± 0.16 g and the “Body weight of the animals, beginning, Second time” value (S180 sarcoma; Dosage 100 (mg/ml)) was 18.6 g. The “Body weight … end, Second time” value (S180 sarcoma; Dosage 100 (mg/ml)) was 25.3 g, the “Inhibition rate, Second time” value (S180 sarcoma; Dosage 100 (mg/ml)) was 32.96% and the “Weight of the tumor X ± SD, Second time” value (S180 sarcoma; Dosage 100, ip × 10qd) was 1.81 ± 0.20 g. The “Inhibition rate (%) S180 sarcomata” value (S180 sarcoma; comparison table 43, in vivo) was 32.2%, the LD50 (Kunming mice) was 135.22 and the IC50 (Bel-7402) was 230 µM. The IC50 (NIH3T3) was 60 µM, the IC50 (Lovo) was 170 µM and the IC50 (BGC-823) was 280 µM.
